Test results from patent US20160264593A1 (priority 2013, published 2016).
“And” between values parts separate entries of the source, which are not always exact repeats. Equal entries are not always repeated. “Also recorded” adds a separate entry of the source. Where two headings read alike, the source gives them in different places.

Tests used:
PP2A [1] = assay: PP2A activity in mouse livers after IP dosing (PP2A immunoprecipitation phosphatase assay, malachite green); format: in vivo, Balb/c mice; conditions: for Average Conc. (group of 3 mice) / Average Relative Activity (group, vehicle = 100) / Conc. (phosphate, single reading, per mouse) / Mean Conc. (per mouse) / Mean Conc. less IgG blank (per mouse) / Relative Conc. (per mouse, to vehicle) / Relative PP2A Activity (per mouse, vehicle = 100): liver
Method in brief: (§1)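 Female Balb/c mice (6-8 weeks) were dosed IP with compound in 4% sodium bicarbonate; brain and liver were harvested 3 h and 6 h post-dose. PP2A was immunoprecipitated from 240 μg lysate with anti-PP2A, using normal IgG as control. Phosphatase activity on a threonine phosphopeptide was read by malachite green absorbance against a phosphate standard curve.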

PP2A [2] = assay: PP2A activity in mouse brains after IP dosing (PP2A immunoprecipitation phosphatase assay, malachite green); format: in vivo, Balb/c mice; conditions: for Average Conc. (group of 3 mice) / Average Relative Activity (group, vehicle = 100) / Conc. (phosphate, single reading, per mouse) / Mean Conc. (per mouse) / Mean Conc. less IgG blank (per mouse) / Relative Conc. (per mouse, to vehicle) / Relative PP2A Activity (per mouse, vehicle = 100): brain; for PP2A activity in brains as compared with vehicle: high doses IP
Method in brief: as §1

[3] = system: glioblastoma (U-87) cells; assay: WST cell viability assay, U-87 MG; format: cell-based; conditions: Homo sapiens, U-87 MG
lung cancer (A549) cells = assay: WST cell viability assay, A549; format: cell-based; conditions: Homo sapiens, A549, read-out: IC50 A549
[4] = system: breast cancer (2LMP) cells; assay: WST cell viability assay, 2LMP
Excerpt: IC50 values were obtained for cytotoxicity against breast cancer (2LMP), glioblastoma (U-87) and lung cancer (A549) cells (See Table 5 and FIGS. 3-5).

[5] = IP, dose and time not specified
[6] = high dose IP (mpk: 100 1.5, 113 2.2, 151 1.6, 157 2.0), 3 h
[7] = high dose IP (mpk: 100 1.5, 113 2.2, 151 1.6, 157 2.0), 6 h
[8] = low dose IP (mpk: 100 0.75, 113 1.1, 151 0.8, 153 0.85, 157 1.0), 3 h
[9] = low dose IP (mpk: 100 0.75, 113 1.1, 151 0.8, 153 0.85, 157 1.0), 6 h
[10] = high dose IP (mpk: 100 1.5, 113 2.2, 151 1.6, 153 1.7, 157 2.0), 3 h
[11] = high dose IP (mpk: 100 1.5, 113 2.2, 151 1.6, 153 1.7, 157 2.0), 6 h

CCCCCCCOC(=O)C1C2CCC(O2)C1C(=O)N1CCN(C)CC1 (centres unmarked) [Compound 157, 3-(4-Methylpiperazine-1-carbonyl)-7-oxa-bicyclo[2,2,1]heptane-2-carboxylic acid heptyl ester]
PP2A activity in the liver of mice (statement) (PP2A [1]; [5]): inhibited PP2A activity | Average Conc. (group of 3 mice) (PP2A [1]; [6]): 234.28 | Average Relative Activity (group, vehicle = 100) (PP2A [1]; [6]): 55.78 | Conc. (phosphate, single reading, per mouse) (PP2A [1]; [6]): 344.85 and 360.53 and 257.33 and 287.81 and 202.46 and 225.54 | Mean Conc. (per mouse) (PP2A [1]; [6]): 352.69 and 272.57 and 214 | Mean Conc. less IgG blank (per mouse) (PP2A [1]; [6]): 307.22 and 227.09 and 168.52 | Relative Conc. (per mouse, to vehicle) (PP2A [1]; [6]): 0.73 and 0.54 and 0.4 | Relative PP2A Activity (per mouse, vehicle = 100) (PP2A [1]; [6]): 73.15 and 54.07 and 40.13 | Average Conc. (group of 3 mice) (PP2A [1]; [7]): 232.03 | Average Relative Activity (group, vehicle = 100) (PP2A [1]; [7]): 52.2 | Conc. (phosphate, single reading, per mouse) (PP2A [1]; [7]): 266.91 and 213.78 and 382.3 and 411.92 and 190.7 and 199.41 | Mean Conc. (per mouse) (PP2A [1]; [7]): 240.34 and 397.11 and 195.06 | Mean Conc. less IgG blank (per mouse) (PP2A [1]; [7]): 194.87 and 351.63 and 149.58 | Relative Conc. (per mouse, to vehicle) (PP2A [1]; [7]): 0.44 and 0.79 and 0.34 | Relative PP2A Activity (per mouse, vehicle = 100) (PP2A [1]; [7]): 43.84 and 79.11 and 33.65 | activity of PP2A in livers as compared with vehicle (statement) (PP2A [1]; high dose IP, 6 h post treatment): significantly inhibited | Average Conc. (group of 3 mice) (PP2A [1]; [8]): 328.84 | Average Relative Activity (group, vehicle = 100) (PP2A [1]; [8]): 78.3 | Average Conc. (group of 3 mice) (PP2A [1]; [9]): 359.62 | Average Relative Activity (group, vehicle = 100) (PP2A [1]; [9]): 80.9 | PP2A activity in the brain of mice (statement) (PP2A [2]; [5]): inhibited PP2A activity | Average Conc. (group of 3 mice) (PP2A [2]; [10]): 1343.13 | Average Relative Activity (group, vehicle = 100) (PP2A [2]; [10]): 54.50 | Conc. (phosphate, single reading, per mouse) (PP2A [2]; [10]): 1589.30 and 1726.49 and 1634.83 and 1576.29 and 896.81 and 863.27 | Mean Conc. (per mouse) (PP2A [2]; [10]): 1657.89 and 1605.56 and 880.04 | Mean Conc. less IgG blank (per mouse) (PP2A [2]; [10]): 1619.87 and 1567.53 and 842.01 | Relative Conc. (per mouse, to vehicle) (PP2A [2]; [10]): 0.75 and 0.72 and 0.39 | Relative PP2A Activity (per mouse, vehicle = 100) (PP2A [2]; [10]): 65.72 and 63.60 and 34.16 | Average Conc. (group of 3 mice) (PP2A [2]; [11]): 1748.29 | Average Relative Activity (group, vehicle = 100) (PP2A [2]; [11]): 62.95 | Conc. (phosphate, single reading, per mouse) (PP2A [2]; [11]): 1929.55 and 2102.31 and 1375.88 and 1308.40 and 1958.00 and 2043.77 | Mean Conc. (per mouse) (PP2A [2]; [11]): 2015.93 and 1342.14 and 2000.89 | Mean Conc. less IgG blank (per mouse) (PP2A [2]; [11]): 1977.90 and 1304.11 and 1962.86 | Relative Conc. (per mouse, to vehicle) (PP2A [2]; [11]): 0.81 and 0.53 and 0.80 | Relative PP2A Activity (per mouse, vehicle = 100) (PP2A [2]; [11]): 71.22 and 46.96 and 70.67 | activity of PP2A in brains (statement) (PP2A [2]; high dose IP, 3 h): most potent; also recorded: significantly inhibited; also recorded: more effectively than compound 100 | activity of PP2A in brains (statement) (PP2A [2]; high dose IP, 6 h): most potent; also recorded: significantly inhibited; also recorded: more effectively than compound 100 | PP2A activity in brains as compared with vehicle (PP2A [2]; 3 h post treatment): 51% | PP2A activity in brains as compared with vehicle (PP2A [2]; 6 h post treatment): 63% | Average Conc. (group of 3 mice) (PP2A [2]; [8]): 1523.35 | Average Relative Activity (group, vehicle = 100) (PP2A [2]; [8]): 61.81 | Conc. (phosphate, single reading, per mouse) (PP2A [2]; [8]): 1696.01 and 1732.18 and 1420.80 and 1346.00 and 1604.74 and 1568.56 | Mean Conc. (per mouse) (PP2A [2]; [8]): 1714.09 and 1383.40 and 1586.65 | Mean Conc. less IgG blank (per mouse) (PP2A [2]; [8]): 1676.07 and 1345.37 and 1548.63 | Relative Conc. (per mouse, to vehicle) (PP2A [2]; [8]): 0.77 and 0.62 and 0.71 | Relative PP2A Activity (per mouse, vehicle = 100) (PP2A [2]; [8]): 68.00 and 54.59 and 62.83 | Average Conc. (group of 3 mice) (PP2A [2]; [9]): 1413.26 | Average Relative Activity (group, vehicle = 100) (PP2A [2]; [9]): 50.88 | Conc. (phosphate, single reading, per mouse) (PP2A [2]; [9]): 1975.68 and 1782.39 and 1408.40 and 1380.55 and 1075.87 and 1084.82 | Mean Conc. (per mouse) (PP2A [2]; [9]): 1879.04 and 1394.48 and 1080.34 | Mean Conc. less IgG blank (per mouse) (PP2A [2]; [9]): 1841.01 and 1356.45 and 1042.32 | Relative Conc. (per mouse, to vehicle) (PP2A [2]; [9]): 0.75 and 0.55 and 0.43 | Relative PP2A Activity (per mouse, vehicle = 100) (PP2A [2]; [9]): 66.29 and 48.84 and 37.53 | activity of PP2A in brains (statement) (PP2A [2]; low dose IP, 6 h): most potent | IC50 ([3]; read-out: IC50 U-87 MG, WST-20131017 (first value of the cell)): > 100 µM | IC50 ([3]; read-out: IC50 U-87 MG, WST-20131024 (second value of the cell)): > 100 µM | IC50 (lung cancer (A549) cells): > 100 µM | IC50 ([4]; read-out: IC50 2LMP, WST-20131015 (first value of the cell)): 92.2 µM | IC50 ([4]; read-out: IC50 2LMP, WST-20131025 (second value of the cell)): 96.4 µM
